Biological target: T1, recombinant 15-PGDH (Homo sapiens, UniProt P15428)
T1 sequence (P15428 1-266): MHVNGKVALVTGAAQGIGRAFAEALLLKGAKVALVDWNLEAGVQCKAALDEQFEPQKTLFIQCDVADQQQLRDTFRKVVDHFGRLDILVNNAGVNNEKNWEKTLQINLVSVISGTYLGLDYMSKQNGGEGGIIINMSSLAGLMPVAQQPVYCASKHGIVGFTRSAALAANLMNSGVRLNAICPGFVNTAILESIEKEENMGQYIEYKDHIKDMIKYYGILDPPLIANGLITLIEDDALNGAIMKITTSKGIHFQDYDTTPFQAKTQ
Format: biochemical
Settings: recombinant human 15-PGDH, in vitro; read-out: PDGH Assay-IC50
Excerpt: The Recombinant 15-PGDH is human unless otherwise specified.

Row | Compound | IC50
1 | COCC[S@+]([O-])c1sc2nc(-c3cnc4nn(C)nc4c3)cc(-c3ccnn3C)c2c1N [Example 382] | ≥ 10 nM
2 | COCC[S+]([O-])c1sc2nc(-c3cnc4c(c3)ncn4C)cc(C3CCC3)c2c1N (centres unmarked) [Example 373] | < 2.5 nM
3 | COC(=O)Nc1ncc(-c2cc(-c3cccnc3)c3c(N)c([S+]([O-])C4CCC4)sc3n2)cn1 (centres unmarked) [Example 117] | 2.5 to 10 nM
4 | COCCC[S+]([O-])c1sc2nc(-c3cnc4c(cnn4C)c3)cc(-c3cccnc3)c2c1N (centres unmarked) [Example 74] | < 2.5 nM
5 | COCC[S@@+]([O-])c1sc2nc(-c3cnc4nncn4c3)cc(-c3ccccc3)c2c1N [Example 359] | < 2.5 nM
6 | COCC[S+]([O-])c1sc2nc(-c3cnc(C)nc3)cc(C(F)(F)F)c2c1N (centres unmarked) [Example 137] | < 2.5 nM
7 | COCC[S@@+]([O-])c1sc2nc(-c3cnc4ncn(C)c4c3)cc(-c3ccccc3)c2c1N [Example 362] | < 2.5 nM
8 | COCC[S@@+]([O-])c1sc2nc(-c3cnc(N)nc3)cc(-c3ccccc3)c2c1N [Example 87] | < 2.5 nM
9 | Nc1c([S+]([O-])C2CCC2)sc2nc(-c3cnc4c(c3)CNC4=O)cc(-c3ncccn3)c12 (centres unmarked) [Example 304] | 2.5 to 10 nM
10 | Cn1cc(-c2cc(-c3ccc(OCCO)cc3)c3c(N)c([S+]([O-])C4CCC4)sc3n2)cn1 (centres unmarked) [Example 412] | < 2.5 nM
11 | Nc1c([S@+]([O-])C2CCC2)sc2nc(-c3cnc(NCCO)nc3)cc(C(F)(F)F)c12 [Example 205] | < 2.5 nM
12 | COCC[S@+]([O-])c1sc2nc(-c3cnc(N)nc3)cc(-c3ccccc3)c2c1N [Example 88] | ≥ 10 nM
13 | COCC[S+]([O-])c1sc2nc(-c3cnc(N4CCOCC4)nc3)cc(C(F)(F)F)c2c1N (centres unmarked) [Example 424] | < 2.5 nM
14 | COCCC[S@@+]([O-])c1sc2nc(-c3cccnc3)cc(C(F)(F)F)c2c1N [Example 78] | < 2.5 nM
15 | Nc1c([S@+]([O-])C2CCC2)sc2nc(-c3cnc(NCCO)nc3)cc(-c3cccnc3)c12 (stereo in doubt) [Example 103] | < 2.5 nM
16 | Nc1c([S+]([O-])C2CCC2)sc2nc(-c3cncnc3)cc(-c3ccn(C4CC4)n3)c12 (centres unmarked) [Example 414] | < 2.5 nM
17 | COCCNc1ncc(-c2cc(-c3ncccn3)c3c(N)c([S+]([O-])C4CCC4)sc3n2)cn1 (centres unmarked) [Example 232] | < 2.5 nM
18 | Nc1c([S+]([O-])C2CCC2)sc2nc(-c3cncnc3)cc(-c3cc[nH]n3)c12 (centres unmarked) [Example 307] | < 2.5 nM
19 | Nc1c([S+]([O-])C2CCC2)sc2nc(-c3cnc(NCCO)nc3)cc(-c3cccc(C(F)(F)F)c3)c12 (centres unmarked) [Example 168] | 2.5 to 10 nM
20 | COC(=O)Nc1ncc(-c2cc(-c3ccccn3)c3c(N)c([S+]([O-])C4CCC4)sc3n2)cn1 (centres unmarked) [Example 113] | 2.5 to 10 nM
21 | Nc1c([S+]([O-])C2CCC2)sc2nc(-c3cnc(NCCO)nc3)cc(-c3cccc(Cl)c3)c12 (centres unmarked) [Example 192] | < 2.5 nM
22 | Cn1cc(-c2cc(-c3cnc(N)nc3)nc3sc([S+]([O-])C4CCC4)c(N)c23)cn1 (centres unmarked) [Example 169] | < 2.5 nM
23 | COCCC[S+]([O-])c1sc2nc(-c3cnc4c(cnn4CCO)c3)cc(C3CC3)c2c1N (centres unmarked) [Example 302] | 2.5 to 10 nM
24 | COCCC[S+]([O-])c1sc2nc(-c3ccnnc3)cc(-c3ccccc3)c2c1N (centres unmarked) [Example 209] | < 2.5 nM
25 | Cn1cnc(-c2cc(-c3cncnc3)nc3sc([S@@+]([O-])C4CCC4)c(N)c23)c1 [Example 65] | ≥ 10 nM

Row | Compound | IC50
26 | COCCC[S@@+]([O-])c1sc2nc(-c3cncnc3)cc(C(F)(F)F)c2c1N [Example 200] | < 2.5 nM
27 | Nc1c([S+]([O-])C2CCC2)sc2nc(-c3cnc(NCCO)nc3)nc(-c3ccccc3)c12 (centres unmarked) [Example 431] | 2.5 to 10 nM
28 | Nc1c([S+]([O-])C2CCC2)sc2nc(-c3cnc(NCCO)nc3)cc(-c3ccccc3F)c12 (centres unmarked) [Example 152] | < 2.5 nM
29 | COCCC[S+]([O-])c1sc2nc(-c3cccnc3)nc(C3CC3)c2c1N (centres unmarked) [Example 191] | 2.5 to 10 nM
30 | Nc1c([S+]([O-])C2CCC2)sc2nc(-c3cnc(NCCO)nc3)cc(-c3ccon3)c12 (centres unmarked) [Example 351] | < 2.5 nM
31 | Cn1nccc1-c1cc(-c2cnc3nnn(C)c3c2)nc2sc([S+]([O-])C3CCC3)c(N)c12 (centres unmarked) [Example 370] | < 2.5 nM
32 | Nc1c([S+]([O-])C2CCC2)sc2nc(-c3cncnc3)cc(-c3cccnc3)c12 (centres unmarked) [Example 84] | < 2.5 nM
33 | CS(=O)(=O)Nc1ncc(-c2cc(-c3ccccn3)c3c(N)c([S+]([O-])C4CCC4)sc3n2)cn1 (centres unmarked) [Example 108] | < 2.5 nM
34 | COCC[S@+]([O-])c1sc2nc(-c3cnc4c(c3)CNC4=O)cc(-c3ccccc3)c2c1N [Example 243] | ≥ 10 nM
35 | Nc1c([S@@+]([O-])C2CCC2)sc2nc(-c3cnc(NCCO)nc3)cc(-c3ncccc3F)c12 [Example 182] | ≥ 10 nM
36 | COCCC[S@+]([O-])c1sc2nc(-c3cncnc3)cc(C(F)(F)F)c2c1N [Example 201] | ≥ 10 nM
37 | Cn1cnc(-c2cc(-c3cncnc3)nc3sc([S@+]([O-])C4CCC4)c(N)c23)c1 [Example 64] | < 2.5 nM
38 | Nc1c([S+]([O-])C2CCC2)sc2nc(-c3cncnc3)cc(-c3ncccn3)c12 (centres unmarked) [Example 98] | < 2.5 nM
39 | Nc1c([S+]([O-])C2CCC2)sc2nc(-c3cnc(C(=O)NCCO)nc3)cc(-c3ccccc3)c12 (centres unmarked) [Example 129] | < 2.5 nM
40 | Nc1c([S+]([O-])C2CCC2)sc2nc(-c3cncnc3)cc(C3CCC3)c12 (centres unmarked) [Example 255] | < 2.5 nM
41 | Nc1c([S@@+]([O-])C2CCC2)sc2nc(-c3cnc(NCCO)nc3)cc(-c3ccccc3)c12 [Example 52] | ≥ 10 nM
42 | COCC[S@@+]([O-])c1sc2nc(-c3cnc4ncn(C)c4c3)cc(C3CCC3)c2c1N [Example 366] | < 2.5 nM
43 | CN1CCN(c2ncc(-c3cc(-c4ccccc4)c4c(N)c([S@@+]([O-])C5CCC5)sc4n3)cn2)CC1 [Example 49] | ≥ 10 nM
44 | Cn1nccc1-c1cc(-c2cnn3ccnc3c2)nc2sc([S+]([O-])C3CCC3)c(N)c12 (centres unmarked) [Example 319] | < 2.5 nM
45 | Nc1c([S+]([O-])C2CCC2)sc2nc(-c3cn[nH]c(=O)c3)cc(C3CCC3)c12 (centres unmarked) [Example 395] | < 2.5 nM
46 | COCC[S+]([O-])c1sc2nc(-c3cnc4nn(C)cc4c3)cc(C(F)(F)F)c2c1N (centres unmarked) [Example 417] | < 2.5 nM
47 | COCCC[S+]([O-])c1sc2nc(-c3cnc(N)nc3)cc(C3CC3)c2c1N (centres unmarked) [Example 107] | < 2.5 nM
48 | COCCC[S@+]([O-])c1sc2nc(-c3cnc4c(cnn4C)c3)cc(-c3cccnc3)c2c1N [Example 102] | ≥ 10 nM
49 | COCCC[S+]([O-])c1sc2nc(-c3cnc(N)nc3)cc(C(F)(F)F)c2c1N (centres unmarked) [Example 133] | < 2.5 nM
50 | COCC[S@+]([O-])c1sc2nc(-c3ccnnc3)cc(-c3ccccc3)c2c1N [Example 212] | ≥ 10 nM

Row | Compound | IC50
51 | COCC[S+]([O-])c1sc2nc(-c3ccnnc3)cc(-c3ccccc3)c2c1N (centres unmarked) [Example 210] | < 2.5 nM
52 | COCC[S+]([O-])c1sc2nc(-c3cncnc3)cc(C34CC(C3)C4)c2c1N (centres unmarked) [Example 256] | < 2.5 nM
53 | Nc1c([S@+]([O-])C2CCC2)sc2nc(-c3cnc(NCCO)nc3)cc(-c3ccccn3)c12 [Example 94] | < 2.5 nM
54 | COCCC[S+]([O-])c1sc2nc(-c3cncnc3)cc(C3CC3)c2c1N (centres unmarked) [Example 106] | < 2.5 nM
55 | Cn1nccc1-c1cc(-c2cnc3c(c2)CNC3=O)nc2sc([S+]([O-])C3CCC3)c(N)c12 (centres unmarked) [Example 305] | < 2.5 nM
56 | COCC[S@@+]([O-])c1sc2nc(-c3cncnc3)cc(C3CCC3)c2c1N [Example 252] | < 2.5 nM
57 | Nc1c([S+]([O-])C2CCC2)sc2nc(-c3cnc(NCCO)nc3)cc(-c3ncccc3F)c12 (centres unmarked) [Example 122] | < 2.5 nM
58 | COCC[S@@+]([O-])c1sc2nc(-c3cnc(N)nc3)cc(C(F)(F)F)c2c1N [Example 202] | < 2.5 nM
59 | COCC[S@+]([O-])c1sc2nc(-c3cnc4nn(C)cc4c3)cc(-c3ccn(C)n3)c2c1N [Example 344] | ≥ 10 nM
60 | COCC[S@@+]([O-])c1sc2nc(-c3cc(=O)n(C)cn3)cc(-c3ccccc3)c2c1N [Example 220] | < 2.5 nM
61 | COCC[S+]([O-])c1sc2nc(-c3cnc4nncn4c3)cc(-c3ccccc3)c2c1N (centres unmarked) [Example 358] | ≥ 10 nM
62 | COCC[S+]([O-])c1sc2nc(-c3cncnc3)cc(C3CC3)c2c1N (centres unmarked) [Example 109] | < 2.5 nM
63 | COCCC[S+]([O-])c1sc2nc(-c3cnn(CCO)c3)cc(-c3ccccc3)c2c1N (centres unmarked) [Example 273] | < 2.5 nM
64 | COCC[S+]([O-])c1sc2nc(-c3ccnnc3)cc(C3CCC3)c2c1N (centres unmarked) [Example 347] | < 2.5 nM
65 | COCC[S@@+]([O-])c1sc2nc(-c3cccnc3)nc(-c3ccccc3)c2c1N [Example 55] | < 2.5 nM
66 | CS(=O)(=O)Nc1ncc(-c2cc(-c3ccccc3)c3c(N)c([S@@+]([O-])C4CCC4)sc3n2)cn1 [Example 69] | ≥ 10 nM
67 | Cn1cc2cc(-c3cc(C(F)(F)F)c4c(N)c([S@+]([O-])C5CCC5)sc4n3)cnc2n1 [Example 423] | < 2.5 nM
68 | COCCC[S+]([O-])c1sc2nc(-c3cncnc3)cc(-c3ncccn3)c2c1N (centres unmarked) [Example 91] | < 2.5 nM
69 | Nc1c([S@+]([O-])C2CCC2)sc2nc(-c3cnc(NCCOCCO)nc3)cc(-c3ccccc3)c12 [Example 184] | < 2.5 nM
70 | COCC[S@@+]([O-])c1sc2nc(-c3cnc4ncn(C)c4c3)cc(C3CC3)c2c1N [Example 405] | < 2.5 nM
71 | Cn1nccc1-c1cc(-c2cnc(O)nc2)nc2sc([S+]([O-])C3CCC3)c(N)c12 (centres unmarked) [Example 223] | < 2.5 nM
72 | Nc1ncc(-c2cc(C(F)(F)F)c3c(N)c([S+]([O-])C4CCC4)sc3n2)cn1 (centres unmarked) [Example 429] | 2.5 to 10 nM
73 | Nc1ncc(-c2cc(-c3ccc(F)cn3)c3c(N)c([S+]([O-])C4CCC4)sc3n2)cn1 (centres unmarked) [Example 66] | < 2.5 nM
74 | COCCC[S+]([O-])c1sc2nc(-c3cncnc3)cc(-c3ccnc(C)c3)c2c1N (centres unmarked) [Example 119] | < 2.5 nM
